The values that follow come from patent publication US8518707B2, “Method of monitoring adsorbent bed breakthrough in a process for producing alkyl esters from vegetable or animal oil and from an aliphatic monoalcohol” (IFP Energies Novelles, priority 2008, dated 2013).

For data set [1] the following is noted: cited from earlier work.
The nature of data set [2]: Solubility limit of glycerol in vegetable rape oil methyl ester (equilibrium with excess glycerol, GC per EN 14,214). As to conditions: solubility limit in vegetable rape oil methyl ester phase. The class given is physicochemical. An excerpt: It has therefore been necessary to determine it. Experimental measurements were therefore carried out on the vegetable rape oil methyl ester/glycerol system. The solubility measurements consisted in bringing together ester and glycerol in excess so as to obtain two distinct phases and to be sure the ester phase is saturated with glycerol, in a thermostat-controlled oven, at the selected temperature, long enough for equilibrium to be reached. A sample is then taken from the ester phase and analysed by gas chromatography according to the method of determining glycerol in ester described in the EN 14,214 standard.

Data set [3] in a line: Soluble glycerol in the ester stream after methanol evaporation (Esterfip-H process). Type of data set: physicochemical. The following applies: methyl ester stream after alcohol evaporation, ambient temperature. An excerpt:
In the Esterfip-H™ process developed by IFP and using a heterogeneous catalyst, separation between the glycerol and the ester produced occurs in several stages. In fact, methanol acting as a co-solubilizing agent for the methyl esters and the glycerol, the alcohol evaporation stage carried out at the reaction section outlet makes part of the glycerol present in the stream, in a proportion ranging between 0.1 and 5% by mass, insoluble. The soluble part represents, at ambient temperature, 500 to 700 ppm mass, the allowable maximum content set by the European standard being 200 ppm mass of free glycerol. Both the insoluble glycerol and part of the soluble glycerol therefore have to be separated. Separation is first performed through gravity decantation in a decanter drum. The ester stream flowing from the decanter is then sent to a coalescer. The glycerin phase stream is withdrawn at the bottom point of the coalescer. Methods allowing these two separation stages to be improved are described in the patent applications filed by the assignee under No. FR-07/04,711 and FR-07/04,715.

As to `OCC(O)CO` [glycerol], the solubility in alcohols result in data set [1] (alcohols) is “infinitely soluble”. For the same compound, the solubility in benzene result in data set [1] (benzene) is on record as “totally insoluble”. Further, the solubility in ethers result in data set [1] (ethers) is given as “little soluble”. Further, the solubility in water result in data set [1] (water) is listed as “infinitely soluble”. For the same compound, the “Climit(glycerol)” value was 320 ppm in data set [2] (T 20 °C), 484 ppm in data set [2] (T 43 °C), 813 ppm in data set [2] (T 61 °C) and 1233 ppm in data set [2] (T 80 °C). For the same compound, in data set [3], the “soluble part of glycerol in ester stream” value was 500 to 700 ppm mass.
